Assay results published in US12023397B2, “Scalp protection composition” (PATECH FINE CHEMICALS CO., LTD., priority 2021, dated 2024).

Columns and labels:
skin of a test subject = assay: Moisture retention (skin moisture content after application); assay type: in vivo; conditions: 20° C.±3° C., relative humidity 30%±5%
Protocol: 0.1 g of the scalp protection composition of Example 1 was applied to the skin of a test subject. At the 1st, 2nd, and 3rd hours after start of application of the scalp protection composition of Example 1, the skin moisture content (%) of the test subject was measured by using a skin moisture tester (Manufacturer: Cortex Technology; Model no.: DermaLab® Combo) under a temperature of 20° C.±3° C. and a relative humidity of 30%±5%.
The test samples of Comparative Examples 1 and 3 were subjected to the same measurement as described above.
The higher the skin moisture content, the better the moisture retention is.

[1] = Spreadability (spreading rate on quantitative filter paper); assay type: physicochemical; conditions: 50 μL on quantitative filter paper NO. 5C, spreading area after 5 minutes divided by time
Protocol: 50 μL of the carboxylate compound of formula (I-1) prepared in Synthesis Example 1 was dropped on the center of a quantitative filter paper (NO. 5C), and after 5 minutes, the spreading area of the carboxylate compound of formula (I-1) on the quantitative filter paper was measured. The spreading rate (mm^2/min) was calculated by dividing the spreading area by the spreading time (i.e., 5 minutes).
The carboxylate compound of formula (I-2) prepared in Synthesis Example 2, the carboxylate compound of formula (I-3) prepared in Synthesis Example 3, and the test samples of Comparative Examples 1 to 3 were subjected to the same measurement as described above.
The higher the spreading rate, the better the spreadability is.

[2] = Hydrolysis resistance (variation in acid value in alkaline aqueous solution, pH 13); assay type: physicochemical; conditions: 10 g sample + 20 g NaOH aqueous solution pH 13, 40±1° C.
Protocol: 10 g of the carboxylate compound of formula (I-1) prepared in Synthesis Example 1 was mixed with 20 g of an alkaline aqueous solution with a pH value of 13 (which contained sodium hydroxide and water), and then subjected to a reaction at 40±1° C. for 4 hours. Next, the variation in acid value (mg KOH/g) was measured at the 0.75th, 2nd, 3rd, and 4th hours after starting the reaction.
The carboxylate compound of formula (I-2) prepared in Synthesis Example 2, the carboxylate compound of formula (I-3) prepared in Synthesis Example 3, and the test samples of Comparative Examples 1 to 2 were subjected to the same reaction and measurement as described above.
The smaller the variation in acid value, the better the hydrolysis resistance to strong bases is.

Molecule `CCCCCCCCCCC(CCCCCCCC)COC(=O)CCCCCCCCCCCCCCC(C)C` (stereo not shown) [Comparative Example 1, 2-octyldodecyl isostearate] has a Skin moisture content (skin of a test subject; 1st hour after application of 0.1 g to skin) of 28.0%, a Skin moisture content (skin of a test subject; 2nd hour after application of 0.1 g to skin) of 22.7% and a Skin moisture content (skin of a test subject; 3rd hour after application of 0.1 g to skin) of 19.3%. For the same molecule, the Spreading rate [1] was 150 mm^2/min, the “Variation in acid value” ([2]; 0.75th hour) was 0.21 mg KOH/g and the “Variation in acid value” ([2]; 2nd hour) was 0.26 mg KOH/g. The “Variation in acid value” ([2]; 3rd hour) was 0.28 mg KOH/g and the “Variation in acid value” ([2]; 4th hour) was 0.32 mg KOH/g.

With `CCCCCCCCCCC(CCCCCCCC)COC(=O)C(CC)CCCC` (stereo not shown) [Synthesis Example 1, 2-octyldodecyl 2-ethylhexanoate] the Spreading rate [1] was 202 mm^2/min, the “Variation in acid value” ([2]; 0.75th hour) was less than 0.1 mg KOH/g and the “Variation in acid value” ([2]; 2nd hour) was less than 0.1 mg KOH/g. The “Variation in acid value” ([2]; 3rd hour) was 0.12 mg KOH/g and the “Variation in acid value” ([2]; 4th hour) was 0.16 mg KOH/g.
